Measurements: article PMC7067268, “Biosynthesis of plant tetrahydroisoquinoline alkaloids through an imine reductase route” (Chemical Science, 2019)
Where two headings read alike, the source gives them in different places.

Key:
IR45 [1] = assay: imine reduction kinetics; conditions: read-out: F190L-W191F / K m; NADPH-dependent
IR45 [2] = assay: imine reduction kinetics; conditions: read-out: F190M-W191F / K m; NADPH-dependent
IR45 [3] = assay: imine reduction kinetics; conditions: read-out: IR45 / K m; NADPH-dependent
[4] = system: COc1ccc(C[C@@H]2NCCc3cc(OC)c(OC)cc32)cc1OC; assay: purified protein; conditions: co-substrate S-adenosylmethionine
[5] = system: COc1cc2c(cc1OC)[C@H](c1ccc3c(c1)OCO3)NCC2; assay: purified protein; conditions: co-substrate S-adenosylmethionine

Compound | Km (IR45 [1]) [µM] | Km (IR45 [2]) [µM] | Km (IR45 [3]) [µM] | Km [4] [µM] | kcat [4] [s⁻¹] | Km [5] [µM] | kcat [5] [s⁻¹]
COc1cc2c(cc1OC)C(c1ccc3c(c1)OCO3)=NCC2 [1a] | 123 | 108 | 154 |  |  |  | 
COc1ccc(C2=NCCc3cc(OC)c(OC)cc32)cc1OC [2a] | 307 |  |  |  |  |  | 
COc1ccc(CC2=NCCc3cc(OC)c(OC)cc32)cc1OC [5a] | 353 | 178 | 518 |  |  |  | 
Coclaurine N-methyltransferase (CNMT) (Coptis japonica) |  |  |  | 807 ± 208 | 0.296 ± 0.042 | 806 ± 198 | 0.098 ± 0.031

Second part, led by results:

Km (IR45 [1]) [µM] | Km (IR45 [2]) [µM] | Km (IR45 [3]) [µM] | Compound | Km [4] [µM] | kcat [4] [s⁻¹] | Km [5] [µM] | kcat [5] [s⁻¹]
372 |  |  | COc1cc2c(cc1OC)C(c1cc(OC)c(OC)c(OC)c1)=NCC2 [3a] |  |  |  | 
252 | 251 | 148 | COc1cc2c(cc1OC)C(Cc1ccccc1)=NCC2 [4a] |  |  |  | 
